In brackets after ≈: the same amount, converted by molar mass. Where two headings read alike, the source gives them in different places.
How the values were obtained:
[1] = Kinetic solubility in PBS, pH 7.4 (2% DMSO); assay type: physicochemical; settings: PBS with 2% DMSO, pH 7.4, aqueous buffer, kinetic from dmso stock, PBS, pH 7.4 (2% DMSO)
[2] = test system: MDR1 (P-glycoprotein); assay: in vitro; assay type: in vitro ADME, canine; settings: dog; for efflux ratio at 1 h, 10 µM: pH 7.4, MDR1 MDCK, Papp B>A / Papp A>B
Protocol: (§1) internal standard at each timepoint. […]
(§2) including an analytical internal standard.
(§3) Apparent permeability (Papp) values were determined from the relationship: […]
(§4) Where V is the volume of each Transwell compartment (apical 125 µL, basolateral 600 µL), and concentrations are the relative MS responses for compound (normalized to internal standard) in the donor chamber before incubation and acceptor chamber at the end of the incubation. Area = area of cells exposed for drug transfer (0.33 cm 2).
(§5) Efflux ratios (Papp B>A / Papp A>B) were calculated for each compound from the […]
(§6) MDR1-MDCK cell line has been engineered to overexpress the efflux transporter, MDR1 (P-glycoprotein), and a finding of good permeability B>A, but poor […]
(§7) order to confirm the involvement of MDR1 in any efflux seen, an “ef fective efflux ratio” (EER) was calculated by comparing compound efflux ratios (ER) in the two cell types, i.e. EER = ER (MDR1-MDCK)/ ER (wild-type MDCK). This ratio illustrates the effect of the over-expressed MDR1 normalised for the background movement of compound through the wild-type cells.
(§8) Lucifer Yellow (LY) was added to the apical buffer in all wells to assess viability of the cell layer. As LY cannot freely permeate lipophilic barriers, a high degree of LY […]
(§9) validity of other wells on the plate.
(§10) Compound recovery from the wells was determined from MS responses (normalized to internal standard) in donor and acceptor chambers at the end of incubation compared to response in the donor chamber pre-incubation.

[3] = in vitro; assay type: in vitro ADME, canine; settings: dog; for Papp A→B at 1 h, 10 µM / Papp B→A at 1 h, 10 µM / recovery at 1 h, 10 µM: MDCK; for efflux ratio at 1 h, 10 µM: pH 7.4, wild type MDCK, Papp B>A / Papp A>B
Protocol: as §1, §2, §3, §4, §5, §6, §7, §8, §9, §10

[4] = Mouse brain penetration study; assay type: in vivo, female C57BL6 mice; settings: mouse, 1 mg/kg i.v.; for In blood / In brain: single mice, analyte inhibitor 1 (also after prodrugs) or 1h
Protocol: Inhibitor 1 (and prodrugs 1a, 1b, 1c and 1d) was dosed as a bolus solution intravenously at 1 mg free base/kg (dose volume: 5 mL/kg; dose vehicle: 5% DMSO; 95% saline (inhibitor 1) or 5% DMSO; 40% PEG400; 55% MilliQ H2O (prodrugs 1a, 1b, 1c and 1d)) to female C57BL6 mice (n = 6). At 5 min and 60 min following intravenous bolus injection of test compound, mice (n = 3/timepoint) were placed under terminal anaesthesia with isofluorane. A blood sample was taken by cardiac puncture, the […] decapitated and the brain removed. Brain weight was noted and each brain homogenised with two volumes of methanol (2 mL/g brain). Each blood sample was diluted with distilled water (1:10). Diluted blood and the brain homogenates were then stored frozen until preparation and analysis by UPLC-MS/MS. For each mouse at each timepoint for 1, the concentration in brain (ng/g) was divided by the concentration in blood (ng/mL) to give a brain:blood ratio. The mean value obtained was quoted. For prodrugs 1a to 1d, only the concentration of 1 in blood (ng/mL) and brain (ng/g) was reported.
A rapid and sensitive ultra-performance chromatography/tandem mass spectrometry (UPLC-MS/MS) method was developed and validated for the determination of inhibitor 1 and prodrug 1b (rat only). Chromatographic analysis was conducted on a Waters Acquity™ UPLC system. Chromatographic separation was performed with an Acquity™ UPLC BEH C18 column (50 × 2.1 mm, 1.7 µm, 130Å; Waters Corp.) maintained at 40 °C in a column oven. The mobile phase consisted of water with 0.01% formic acid and ACN with 0.01 % formic acid and it was delivered at a flow rate of 0.6 mL/min under gradient eluent conditions within an analysis cycle time of 3 min. The mass detection was conducted on a Waters Xevo™ TQs mass spectrometer equipped with a ScanWave™ technology. Quantitation of the analyte was performed in electrospray positive ionisation mode (ESI^+) using multiple reaction monitoring. The optimised fragmentation transition was m/z = 270.17 → 196.19 (mouse) or m/z = 270.17 → 223.76 (rat) for inhibitor 1 and m/z = 297.83 → 195.74 for prodrug 1b (rat).
Sample extraction for blood and brain homogenate was by protein precipitation (1:3 or 1:6) using ACN containing suitable internal standard. Extracts were vortexed followed by centrifugation (2800 rpm for 10 min). An aliquot of each supernatant was then diluted two-fold in distilled water ready for analysis by UPLC-MS/MS.
The weighted 1/x^2 calibration line was linear in the dynamic range of 1–5000 ng/mL for inhibitor 1 and 1–1000 ng/mL for prodrug 1b with a correlation coefficient (r^2) > 0.99 (inhibitor 1) or 0.98 (prodrug 1b). The quality control samples (QC) were prepared by using the same spiking scheme as the calibration samples and up to four different target concentration brain levels: 2 ng/mL (LQC), 40 ng/mL (MQC), 100 ng/mL (HQC) and 2000 ng/mL. Data collection, peak integration and calculations were performed using MassLynx software, version 2.1.

[5] = biological target: T1, PfKMO (Pseudomonas fluorescens, UniProt Q84HF5, C252S/C461S); assay: Stopped-flow reduction of flavin cofactor by NADPH; assay type: biochemical; settings: PfKMO with saturating ligand, 2 mM NADPH, 25 °C, anaerobic
T1 construct: made in house; host or cells: E. coli BL21 (DE3)
T1 sequence (Q84HF5 whole entry C252S/C461S): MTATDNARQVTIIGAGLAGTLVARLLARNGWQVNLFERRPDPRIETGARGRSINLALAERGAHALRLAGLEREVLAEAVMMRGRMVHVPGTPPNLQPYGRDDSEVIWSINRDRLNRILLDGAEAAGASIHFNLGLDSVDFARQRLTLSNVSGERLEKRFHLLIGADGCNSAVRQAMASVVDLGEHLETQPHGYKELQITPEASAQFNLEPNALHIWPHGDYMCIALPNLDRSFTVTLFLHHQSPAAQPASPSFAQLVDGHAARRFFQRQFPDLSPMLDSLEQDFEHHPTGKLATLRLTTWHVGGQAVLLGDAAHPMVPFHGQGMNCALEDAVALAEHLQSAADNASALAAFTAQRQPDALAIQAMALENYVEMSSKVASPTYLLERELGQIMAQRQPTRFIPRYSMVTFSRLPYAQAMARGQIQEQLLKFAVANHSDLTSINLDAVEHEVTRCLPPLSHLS
Protocol: The reduction rate of the flavin cofactor by NADPH was measured using a stopped-flow spectrophotometer (Applied Photophysics Ltd), which was housed in an anaerobic glovebox (Belle Technology). […] The reduction of the flavin was monitored by the decrease in the absorbance of the flavin at 450 nm and transients were fitted to either double or triple exponentials.
Supplementary Figure 13. Reduction of flavin cofactor by NADPH in the presence and absence of ligands. Anaerobic mixtures of 10 µM PfKMO with or without ligand were mixed against anaerobic 2 mM NADPH on a stopped-flow spectrophotometer at 25℃. a, 10 µM PfKMO mixed with 2 mM NADPH; b, 10 µM

[6] = MDCK-MDR1, pH 7.4, MDR1 MDCK, read-out: Papp A>B Mean
[7] = MDCK-MDR1, pH 7.4, MDR1 MDCK, read-out: Papp B>A Mean
[8] = MDCK-MDR1, pH 7.4, MDR1 MDCK, read-out: Recovery A>B Mean
[9] = MDCK-MDR1, pH 7.4, MDR1 MDCK, read-out: Recovery A>B n=1
[10] = MDCK-MDR1, pH 7.4, MDR1 MDCK, read-out: Recovery A>B n=2
[11] = MDCK-MDR1, pH 7.4, MDR1 MDCK, read-out: Recovery B>A Mean
[12] = MDCK-MDR1, pH 7.4, MDR1 MDCK, read-out: Recovery B>A n=1
[13] = MDCK-MDR1, pH 7.4, MDR1 MDCK, read-out: Recovery B>A n=2
[14] = MDCK-MDR1, pH 7.4, Papp A>B n=1, MDR1 MDCK
[15] = MDCK-MDR1, pH 7.4, Papp A>B n=2, MDR1 MDCK
[16] = MDCK-MDR1, pH 7.4, Papp B>A n=1, MDR1 MDCK
[17] = MDCK-MDR1, pH 7.4, Papp B>A n=2, MDR1 MDCK
[18] = pH 7.4, Papp A>B n=1, wild type MDCK
[19] = pH 7.4, Papp A>B n=2, wild type MDCK
[20] = pH 7.4, Papp B>A n=1, wild type MDCK
[21] = pH 7.4, Papp B>A n=2, wild type MDCK
[22] = pH 7.4, wild type MDCK, read-out: Papp A>B Mean
[23] = pH 7.4, wild type MDCK, read-out: Papp B>A Mean
[24] = pH 7.4, wild type MDCK, read-out: Recovery A>B Mean
[25] = pH 7.4, wild type MDCK, read-out: Recovery A>B n=1
[26] = pH 7.4, wild type MDCK, read-out: Recovery A>B n=2
[27] = pH 7.4, wild type MDCK, read-out: Recovery B>A Mean
[28] = pH 7.4, wild type MDCK, read-out: Recovery B>A n=1
[29] = pH 7.4, wild type MDCK, read-out: Recovery B>A n=2

Row | SMILES | solubility at 2 h ([1]; read-out: Solubility Mean) [µM] | solubility at 2 h ([1]; read-out: Solubility n=1) [µM] | solubility at 2 h ([1]; read-out: Solubility n=2) [µM] | Papp A→B at 1 h, 10 µM [2, 6] [×10⁻⁶ cm/s] | Papp B→A at 1 h, 10 µM [2, 7] [×10⁻⁶ cm/s] | recovery at 1 h, 10 µM [2, 8] [%] | recovery at 1 h, 10 µM [2, 9] [%] | recovery at 1 h, 10 µM [2, 10] [%] | recovery at 1 h, 10 µM [2, 11] [%] | recovery at 1 h, 10 µM [2, 12] [%] | recovery at 1 h, 10 µM [2, 13] [%] | Papp A→B at 1 h, 10 µM [2, 14] [×10⁻⁶ cm/s] | Papp A→B at 1 h, 10 µM [2, 15] [×10⁻⁶ cm/s] | Papp B→A at 1 h, 10 µM [2, 16] [×10⁻⁶ cm/s] | Papp B→A at 1 h, 10 µM [2, 17] [×10⁻⁶ cm/s] | efflux ratio at 1 h, 10 µM [2] | Papp A→B at 1 h, 10 µM [3, 18] [×10⁻⁶ cm/s] | Papp A→B at 1 h, 10 µM [3, 19] [×10⁻⁶ cm/s] | Papp B→A at 1 h, 10 µM [3, 20] [×10⁻⁶ cm/s] | Papp B→A at 1 h, 10 µM [3, 21] [×10⁻⁶ cm/s] | further results
1 | CC(CSc1ccc(Cl)cc1)C(=O)O (stereo not shown) [compound 6, 3-[(4-chlorophenyl)thio]-2-methylpropanoic acid] | 187 (≈ 43.1 µg/mL) | 186 (≈ 42.9 µg/mL) | 188 (≈ 43.4 µg/mL) | 50.5 | 41.5 | 82 | 68 | 96 | 80 | 93 | 67 | 40 | 61 | 51 | 32 | 0.81 | 33 | 41 | 51 | 50 | Papp A→B at 1 h, 10 µM [3, 22]: 37 ×10⁻⁶ cm/s; Papp B→A at 1 h, 10 µM [3, 23]: 50.5 ×10⁻⁶ cm/s; recovery at 1 h, 10 µM [3, 24]: 66%; recovery at 1 h, 10 µM [3, 25]: 57%; recovery at 1 h, 10 µM [3, 26]: 75%; recovery at 1 h, 10 µM [3, 27]: 93.5%; recovery at 1 h, 10 µM [3, 28]: 98%; recovery at 1 h, 10 µM [3, 29]: 89%; efflux ratio at 1 h, 10 µM [3]: 1.36
2 | Cn1c(C(=O)N[C@@H](C(=O)O)c2ccccc2)cc2cc(F)ccc21 [compound 5, (R)-2-(5-fluoro-1-methyl-1H-indole-2-carboxamido)-2-phenylacetic acid] | 185 (≈ 60.4 µg/mL) | 186 (≈ 60.7 µg/mL) | 183 (≈ 59.7 µg/mL) | 2.6 | 2.25 | 83 | 87 | 79 | 81.5 | 80 | 83 | 2.8 | 2.4 | 2.4 | 2.1 | 0.88 | 2.6 | 2.1 | 1.6 | 1.4 | Papp A→B at 1 h, 10 µM [3, 22]: 2.35 ×10⁻⁶ cm/s; Papp B→A at 1 h, 10 µM [3, 23]: 1.5 ×10⁻⁶ cm/s; recovery at 1 h, 10 µM [3, 24]: 81%; recovery at 1 h, 10 µM [3, 25]: 81%; recovery at 1 h, 10 µM [3, 26]: 81%; recovery at 1 h, 10 µM [3, 27]: 83.5%; recovery at 1 h, 10 µM [3, 28]: 86%; recovery at 1 h, 10 µM [3, 29]: 81%; efflux ratio at 1 h, 10 µM [3]: 0.62
3 | COC(=O)CN1C(=O)COc2cc(C)c(Cl)c(C)c21 [1a] |  |  |  |  |  |  |  |  |  |  |  |  |  |  |  |  |  |  |  |  | In blood ([4]; 5 min, listed as prodrug 1a, 1 mg/kg): ≤ LLoQ
4 | Cc1cc2c(c(C)c1Cl)N(Cc1nn[nH]n1)C(=O)CO2 [1h, 6-chloro-5,7-dimethyl-4-(2H-tetrazol-5-ylmethyl)-1,4-benzoxazin-3-one] |  |  |  |  |  |  |  |  |  |  |  |  |  |  |  |  |  |  |  |  | Blood levels lower than those observed for 1 [4]: ~ 50%; Brain penetrance (in words) [4]: very limited brain penetrance; In blood ([4]; 60 min): ≤ LLoQ; In brain ([4]; 60 min): ≤ LLoQ; Reduction rate of flavin cofactor [5]: 0.09 ± 0.001 s⁻¹
5 | Cc1cc2c(c(C)c1Cl)N(CC(=O)OC(C)C)C(=O)CO2 [1c] |  |  |  |  |  |  |  |  |  |  |  |  |  |  |  |  |  |  |  |  | In brain ([4]; 60 min): ≤ LLoQ
6 | Oc1ccc(-c2csc3nc(-c4ccccc4)nn23)c(O)c1 [compound 3, 4-(2-phenyl[1,2,4]triazolo[5,1-b][1,3]thiazol-6-yl)benzene-1,3-diol] | 67 (≈ 20.7 µg/mL) | 68 (≈ 21 µg/mL) | 65 (≈ 20.1 µg/mL) | 3.25 | 4.95 | 18 | 15 | 21 | 49.5 | 51 | 48 | 2.9 | 3.6 | 4.9 | 5 | 1.5 | 2.7 | 3.9 | 2.7 | 3.2 | Papp A→B at 1 h, 10 µM [3, 22]: 3.3 ×10⁻⁶ cm/s; Papp B→A at 1 h, 10 µM [3, 23]: 2.95 ×10⁻⁶ cm/s; recovery at 1 h, 10 µM [3, 24]: 15%; recovery at 1 h, 10 µM [3, 25]: 15%; recovery at 1 h, 10 µM [3, 26]: 15%; recovery at 1 h, 10 µM [3, 27]: 49%; recovery at 1 h, 10 µM [3, 28]: 50%; recovery at 1 h, 10 µM [3, 29]: 48%; efflux ratio at 1 h, 10 µM [3]: 0.89

From paper PMC6656724 (Communications Biology, 2019)
